Assay results published in US10738057B2, “Tertiary alcohols as PI3K-γ inhibitors” (Incyte Corporation, priority 2017, dated 2020).
Counter-ions that a name gives are not always drawn. Like-named read-outs stand apart in the source and are kept apart here.

Legend:
[1] = biological target: PI3Kδ (p110δ/p85α) Recombinant Human Protein (Homo sapiens (Human), UniProt O00329); assay: PI3Kδ scintillation proximity assay; format: biochemical; details: 20 μM PIP2, 2 μM ATP, 3.4 nM PI3Kδ, 120 min, room temperature; read-out: PI3Kδ IC50
PI3Kδ (p110δ/p85α) Recombinant Human Protein, sequence (O00329 whole entry): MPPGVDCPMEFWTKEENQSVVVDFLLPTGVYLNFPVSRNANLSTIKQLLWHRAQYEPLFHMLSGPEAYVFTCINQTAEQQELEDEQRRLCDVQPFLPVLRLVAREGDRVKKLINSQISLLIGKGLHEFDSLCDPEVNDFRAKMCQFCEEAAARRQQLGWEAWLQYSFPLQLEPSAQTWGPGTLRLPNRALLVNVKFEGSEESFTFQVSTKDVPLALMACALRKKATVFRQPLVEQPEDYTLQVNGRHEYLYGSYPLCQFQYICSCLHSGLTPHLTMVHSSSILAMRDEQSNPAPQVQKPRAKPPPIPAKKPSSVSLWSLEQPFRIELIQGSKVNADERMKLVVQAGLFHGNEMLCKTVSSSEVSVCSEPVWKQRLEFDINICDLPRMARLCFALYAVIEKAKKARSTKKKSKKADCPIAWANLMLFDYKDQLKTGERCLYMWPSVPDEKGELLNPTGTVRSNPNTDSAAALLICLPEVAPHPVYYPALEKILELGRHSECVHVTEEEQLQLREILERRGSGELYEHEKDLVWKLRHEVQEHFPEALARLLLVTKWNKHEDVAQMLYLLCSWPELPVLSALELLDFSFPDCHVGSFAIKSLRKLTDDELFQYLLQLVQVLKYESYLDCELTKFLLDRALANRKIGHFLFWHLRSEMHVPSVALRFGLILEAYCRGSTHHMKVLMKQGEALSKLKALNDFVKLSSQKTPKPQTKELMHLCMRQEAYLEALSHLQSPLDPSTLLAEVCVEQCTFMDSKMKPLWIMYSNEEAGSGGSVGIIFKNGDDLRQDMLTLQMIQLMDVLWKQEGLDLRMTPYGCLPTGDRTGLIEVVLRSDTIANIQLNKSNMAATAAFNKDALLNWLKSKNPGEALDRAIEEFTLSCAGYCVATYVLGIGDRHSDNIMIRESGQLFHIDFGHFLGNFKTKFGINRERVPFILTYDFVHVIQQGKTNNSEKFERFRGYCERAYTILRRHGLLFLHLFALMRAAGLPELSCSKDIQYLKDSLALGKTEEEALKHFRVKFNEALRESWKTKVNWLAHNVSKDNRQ
PI3Kδ (p110δ/p85α) Recombinant Human Protein, sequence (P27986 whole entry partner): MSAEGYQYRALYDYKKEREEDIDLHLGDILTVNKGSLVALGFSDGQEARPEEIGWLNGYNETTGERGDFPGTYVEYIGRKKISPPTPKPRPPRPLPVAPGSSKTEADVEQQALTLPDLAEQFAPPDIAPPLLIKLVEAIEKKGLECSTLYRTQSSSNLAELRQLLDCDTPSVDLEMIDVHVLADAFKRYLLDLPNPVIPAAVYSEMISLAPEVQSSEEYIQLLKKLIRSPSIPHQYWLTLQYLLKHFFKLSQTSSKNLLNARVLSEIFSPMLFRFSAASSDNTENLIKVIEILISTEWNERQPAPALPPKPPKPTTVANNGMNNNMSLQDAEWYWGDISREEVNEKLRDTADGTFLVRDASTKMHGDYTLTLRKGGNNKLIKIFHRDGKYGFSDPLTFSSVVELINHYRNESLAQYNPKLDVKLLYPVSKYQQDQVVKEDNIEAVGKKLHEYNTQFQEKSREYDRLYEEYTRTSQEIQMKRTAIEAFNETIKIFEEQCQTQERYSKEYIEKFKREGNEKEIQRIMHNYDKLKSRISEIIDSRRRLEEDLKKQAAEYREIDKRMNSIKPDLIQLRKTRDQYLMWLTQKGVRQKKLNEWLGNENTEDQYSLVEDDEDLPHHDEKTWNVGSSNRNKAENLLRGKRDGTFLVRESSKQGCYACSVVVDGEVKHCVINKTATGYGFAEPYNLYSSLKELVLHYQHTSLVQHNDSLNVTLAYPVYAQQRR
Protocol: PI3Kδ Scintillation Proximity Assay
[γ-^33P]ATP (10 mCi/mL) and Wheat Germ Agglutinin (WGA) YSi SPA Scintillation Beads was purchased from PerkinElmer (Waltham, Mass.). […] PI3Kδ (p110δ/p85α) Recombinant Human Protein was purchased from Eurofins (St Charles, Mo.). ATP, MgCl2, DTT, EDTA, MOPS and CHAPS were purchased from SigmaAldrich (St. Louis, Mo.).
The kinase reaction was conducted in polystyrene 384-well Greiner Bio-one white plate from Thermo Fisher Scientific in a final volume of 25 μL. Inhibitors were first diluted serially in DMSO and added to the plate wells before the addition of other reaction components. The final concentration of DMSO in the assay was 2%. The PI3Kδ assay was carried out at room temperature in 20 mM MOPS, pH 6.7, 10 mM MgCl2, 5 mM DTT and CHAPS 0.03%. Reactions were initiated by the addition of ATP, the final reaction mixture consisted of 20 μM PIP2, 2 μM ATP, 0.5 μCi [γ-^33P] […] The final concentration of SPA beads is 1.0 mg/mL. After the plate sealing, plates were shaken overnight at room temperature and centrifuged at 1500 rpm for 10 min, the radioactivity of the product was determined by scintillation counting on Topcount (PerkinElmer). IC50 determination was performed by fitting the curve of percent of the solvent control activity versus the log of the inhibitor concentration using the GraphPad Prism 6.0 software.

[2] = tested on: Phosphorylated Ribosomal Protein S6 (RPS6) in THP-1 cells; assay: THP-1 RPS6 ELISA assay; format: cell-based, Human; details: Homo sapiens
Protocol: Example A. THP-1 RPS6 ELISA Assay
To measure the Phosphorylated Ribosomal Protein S6 (RPS6) in cell lysates, THP-1 cells (Human Acute Monocytic Leukemia) are purchased from ATCC (Manassas, Va.) and maintained in RPMI with 10% FBS (Gibco/Life Technologies, Carlsbad, Calif.). For the assay, THP-1 cells are serum starved overnight in RPMI, then plated in RPMI (2×10^5 cells/well in 90 μL) into 96-well flat-bottom tissue culture treated plates (Corning, Corning, N.Y.), in the presence or absence of a concentration range of test compounds. Covered plates are incubated for 2 hours at 37° C., 5% CO2 then treated with or without 10 nM MCP-1 (MYBioSource, San Diego, Calif.) for 15 minutes at 37° C., 5% CO2. Plates are centrifuged at 1600 RPM and supernatants are removed. Cells are lysed in Lysis Buffer (Cell Signaling, Danvers, Mass.) with Protease Inhibitor (Calbiochem/EMD, Germany), PMSF (Sigma, St Louis Mo.), HALTS (Thermo Fisher, Rockford, Ill.) for 30 min on wet ice. Cell lysates are frozen at −80° C. before testing. The lysates are tested in the Human/Mouse/Rat Phospho-RPS6 ELISA (R&D Systems, Inc. Minn, Minn.). The plate is measured using a microplate reader (SpectraMax M5—Molecular Devices, LLC Sunnyvale, Calif.) set to 450 nm with a wavelength correction of 540. IC50 determination is performed by fitting the curve of inhibitor percent inhibition versus the log of the inhibitor concentration using the GraphPad Prism 5.0 software.

[3] = biological target: PI3Kγ (p110γ) Recombinant Human Protein (Homo sapiens (Human), UniProt P48736); assay: PI3K-γ scintillation proximity assay; format: biochemical; details: 20 μM PIP2, 2 μM ATP, 13 nM PI3Kγ, 120 min, room temperature
PI3Kγ (p110γ) Recombinant Human Protein, sequence (P48736 whole entry): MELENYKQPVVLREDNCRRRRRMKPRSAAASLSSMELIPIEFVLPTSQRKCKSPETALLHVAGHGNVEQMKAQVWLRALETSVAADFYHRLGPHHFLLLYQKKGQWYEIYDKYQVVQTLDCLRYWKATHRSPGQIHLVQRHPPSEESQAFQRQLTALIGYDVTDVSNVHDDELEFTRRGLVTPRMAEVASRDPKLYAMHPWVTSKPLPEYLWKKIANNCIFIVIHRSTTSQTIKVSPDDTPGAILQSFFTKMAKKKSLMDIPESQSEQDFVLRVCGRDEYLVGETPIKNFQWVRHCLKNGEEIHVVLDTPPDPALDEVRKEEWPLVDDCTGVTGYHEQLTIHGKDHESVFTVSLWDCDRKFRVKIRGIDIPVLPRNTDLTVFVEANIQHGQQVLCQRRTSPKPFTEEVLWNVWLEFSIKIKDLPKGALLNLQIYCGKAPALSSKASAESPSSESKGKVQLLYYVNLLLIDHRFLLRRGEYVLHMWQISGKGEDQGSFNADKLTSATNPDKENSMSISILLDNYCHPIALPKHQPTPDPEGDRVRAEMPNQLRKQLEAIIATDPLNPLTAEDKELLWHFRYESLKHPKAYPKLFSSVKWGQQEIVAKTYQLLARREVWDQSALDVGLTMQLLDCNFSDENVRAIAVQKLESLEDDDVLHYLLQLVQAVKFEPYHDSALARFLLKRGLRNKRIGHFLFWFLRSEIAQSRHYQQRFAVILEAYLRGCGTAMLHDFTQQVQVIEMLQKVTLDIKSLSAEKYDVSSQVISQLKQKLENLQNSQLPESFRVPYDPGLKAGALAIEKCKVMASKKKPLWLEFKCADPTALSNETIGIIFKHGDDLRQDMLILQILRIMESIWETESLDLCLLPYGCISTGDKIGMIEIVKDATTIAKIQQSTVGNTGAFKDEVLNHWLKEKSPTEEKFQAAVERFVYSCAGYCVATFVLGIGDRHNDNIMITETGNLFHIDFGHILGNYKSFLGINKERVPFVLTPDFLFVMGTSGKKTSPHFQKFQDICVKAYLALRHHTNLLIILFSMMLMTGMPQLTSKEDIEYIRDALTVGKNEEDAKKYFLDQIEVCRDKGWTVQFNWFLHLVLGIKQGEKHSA
Description: Example B. PI3K-γ Scintillation Proximity Assay
[γ-^33P]ATP (10 mCi/mL) and Wheat Germ Agglutinin (WGA) YSi SPA Scintillation Beads was purchased from PerkinElmer (Waltham, Mass.). Lipid kinase substrate, D-myo-Phosphatidylinositol 4,5-bisphosphate (PtdIns(4,5)P2)D (+)-sn-1,2-di-O-octanoylglyceryl, 3-O-phospho linked (PIP2), CAS 204858-53-7, was purchased from Echelon Biosciences (Salt Lake City, Utah). PI3Kγ (p110γ) Recombinant Human Protein was purchased from Life technology (Grand Island, N.Y.). ATP, MgCl2, DTT, EDTA, MOPS and CHAPS were purchased from SigmaAldrich (St. Louis, Mo.).
The kinase reaction was conducted in polystyrene 384-well Greiner Bio-one white plate from Thermo Fisher Scientific in a final volume of 25 μL. Inhibitors were first diluted serially in DMSO and added to the plate wells before the addition of other reaction components. The final concentration of DMSO in the assay was 2%. The PI3Kγ assay was carried out at room temperature in 20 mM MOPS, pH 6.7, 10 mM MgCl2, 5 mM DTT and CHAPS 0.03%. Reactions were initiated by the addition of ATP, the final reaction mixture consisted of 20 μM PIP2, 2 μM ATP, 0.5 μCi [γ-^33P] ATP, 13 nM PI3Kγ. Reactions were incubated for 120 min and terminated by the addition of 40 μL SPA beads suspended in quench buffer: 163 mM potassium phosphate pH 7.8, 20% glycerol, 25 mM EDTA. The final concentration of SPA beads is 1.0 mg/mL. After the plate sealing, plates were shaken overnight at room temperature and centrifuged at 1500 rpm for 10 min, the radioactivity of the product was determined by scintillation counting on Topcount (Perkin-Elmer). IC50 determination was performed by fitting the curve of percent of the solvent control activity versus the log of the inhibitor concentration using the GraphPad Prism 6.0 software.

[4] = THP-1, THP-1 cells, serum starved, 2 h compound, 10 nM MCP-1 for 15 min, phospho-RPS6 ELISA, read-out: PI3Kγ_THP1_RPS6_ELISA IC50
[5] = THP-1, read-out: PI3Kγ_THP1_RPS6_ELISA IC50 (nM)

Row | IC50 [1] [nM] | IC50 [2, 4] [nM] | IC50 [3] [nM] | Compound | IC50 [2, 5] [nM]
1 | 100 to 500 | 100 to 500 | < 100 | Cc1ccc(C(C)(O)C(F)F)cc1-c1cnc2c(N)nc(-c3c(C)cnn3C)cn12 (stereo not drawn) [Example 42, 2-(3-(8-Amino-6-(1,4-dimethyl-1H-pyrazol-5-yl)imidazo[1,2-a]pyrazin-3-yl)-4-methylphenyl)-1,1-difluoropropan-2-ol] | 
2 | 100 to 500 | 100 to 500 | < 100 | Cc1ccc(C(C)(O)C(F)(F)F)cc1-c1cnc2c(N)nc(C(=O)NC34CC(C#N)(C3)C4)cn12 (stereo not drawn) [Example 278, 8-Amino-N-(3-cyanobicyclo[1.1.1]pentan-1-yl)-3-(2-methyl-5-(1,1,1-trifluoro-2-hydroxypropan-2-yl)phenyl)imidazo[1,2-a]pyrazine-6-carboxamide trifluoroacetate salt] | 
3 | < 100 | < 100 | < 100 | Cc1ccc(C(O)(C(=O)NC2(C)CNC2)C(F)(F)F)cc1-c1cnc2c(N)nc(C(F)(F)F)cn12 (stereo not drawn) [Example 128, 2-(3-(8-Amino-6-(trifluoromethyl)imidazo[1,2-a]pyrazin-3-yl)-4-methylphenyl)-3,3,3-trifluoro-2-hydroxy-N-(3-methylazetidin-3-yl)propanamide trifluoroacetate salt] | 
4 | 500 to 2000 | 500 to 1000 | < 100 | COC(=O)c1cn2c(-c3cc(C(C)(O)C(F)(F)F)ccc3C)cnc2c(N)n1 (stereo not drawn) [Example 8, Methyl 8-amino-3-(2-methyl-5-(1,1,1-trifluoro-2-hydroxypropan-2-yl)phenyl)imidazo[1,2-a]pyrazine-6-carboxylate] | 
5 | 100 to 500 | 100 to 500 | < 100 | Cc1cc(-c2cn3c(-c4cc(C(C)(O)C(F)F)ccc4C)cnc3c(N)n2)on1 (stereo not drawn) [Example 48, 2-(3-(8-Amino-6-(3-methylisoxazol-5-yl)imidazo[1,2-a]pyrazin-3-yl)-4-methylphenyl)-1,1-difluoropropan-2-ol trifluoroacetate] | 
6 |  | < 100 |  | Cc1ccc(C(O)(C(N)=O)C(F)(F)F)cc1-c1cnc2c(N)nc(C(C)(C)O)cn12 (single isomer, unassigned) [Example 255, 2-(3-(8-Amino-6-(2-hydroxypropan-2-yl)imidazo[1,2-a]pyrazin-3-yl)-4-methylphenyl)-3,3,3-trifluoro-2-hydroxypropanamide trifluoroacetate salt] | 
7 |  |  |  | Cc1ccc(C(O)(CO)C(F)(F)F)cc1-c1cnc2c(N)nc(-c3cnco3)cn12 (racemic) [Example 71, 2-(3-(8-Amino-6-(oxazol-5-yl)imidazo[1,2-a]pyrazin-3-yl)-4-methylphenyl)-3,3,3-trifluoropropane-1,2-diol trifluoroacetate salt] | < 100
8 |  | 500 to 1000 |  | Cc1ccc(C(O)(C(N)=O)C(F)(F)F)cc1-c1cnc2c(N)nc(C(=O)NC34CCC(O)(CC3)C4)cn12 (single isomer, unassigned) [Example 260, 8-Amino-3-(5-(3-amino-1,1,1-trifluoro-2-hydroxy-3-oxopropan-2-yl)-2-methylphenyl)-N-(4-hydroxybicyclo[2.2.1]heptan-1-yl)imidazo[1,2-a]pyrazine-6-carboxamide trifluoroacetate salt] | 
9 |  |  |  | Cc1ccc(C(O)(CO)C(F)(F)F)cc1-c1cnc2c(N)nc(-c3cnn(C)c3)cn12 (racemic) [Example 69, 2-(3-(8-Amino-6-(1-methyl-1H-pyrazol-4-yl)imidazo[1,2-a]pyrazin-3-yl)-4-methylphenyl)-3,3,3-trifluoropropane-1,2-diol trifluoroacetate salt] | < 100
10 | 100 to 500 |  | < 100 | Cc1ccc(C(C)(O)C(F)F)cc1-c1cnc2c(N)nc(C3CC3C(=O)N3CCN(C)CC3)cn12 (stereo not drawn) [Example 77, (2-(8-Amino-3-(5-(1,1-difluoro-2-hydroxypropan-2-yl)-2-methylphenyl)imidazo[1,2-a]pyrazin-6-yl)cyclopropyl)(4-methylpiperazin-1-yl)methanone trifluoroacetate salt] | 
11 |  |  |  | Cc1ncc(-c2cn3c(-c4cc(C(O)(CO)C(F)(F)F)ccc4C)cnc3c(N)n2)s1 (racemic) [Example 70, 2-(3-(8-Amino-6-(2-methylthiazol-5-yl)imidazo[1,2-a]pyrazin-3-yl)-4-methylphenyl)-3,3,3-trifluoropropane-1,2-diol trifluoroacetate salt] | < 100
12 | 100 to 500 |  | < 100 | Cc1ccc(C(C)(O)C(F)(F)F)cc1-c1cnc2c(N)nc(N3CCC(O)CC3)cn12 (stereo not drawn) [Example 65, 1-(8-Amino-3-(2-methyl-5-(1,1,1-trifluoro-2-hydroxypropan-2-yl)phenyl)imidazo[1,2-a]pyrazin-6-yl)piperidin-4-ol] | 
13 | 100 to 500 |  | < 100 | CC(=O)NCC(O)(c1ccc(C)c(-c2cnc3c(N)nc(C(F)(F)F)cn23)c1)C(F)(F)F (stereo not drawn) [Example 211, N-(2-(3-(8-amino-6-(trifluoromethyl)imidazo[1,2-a]pyrazin-3-yl)-4-methylphenyl)-3,3,3-trifluoro-2-hydroxypropyl)acetamide trifluoroacetate] | 
14 | 100 to 500 |  | < 100 | Cc1ccc(C(C)(O)C(F)(F)F)cc1-c1cnc2c(N)nc(C(=O)NC34COC(CO)(C3)C4)cn12 (stereo not drawn) [Example 279, 8-Amino-N-(1-(hydroxymethyl)-2-oxabicyclo[2.1.1]hexan-4-yl)-3-(2-methyl-5-(1,1,1-trifluoro-2-hydroxypropan-2-yl)phenyl)imidazo[1,2-a]pyrazine-6-carboxamide trifluoroacetate salt] | 
15 | 100 to 500 |  | < 100 | Cc1ccc(C(C)(O)C(F)(F)F)cc1-c1cnc2c(N)nc(C(=O)NCC(C)(C)O)cn12 (single isomer, unassigned) [Example 62, 8-amino-N-(2-hydroxy-2-methylpropyl)-3-(2-methyl-5-(1,1,1-trifluoro-2-hydroxypropan-2-yl)phenyl)imidazo[1,2-a]pyrazine-6-carboxamide] | 
